Measurements reported in article PMC7709805 (Biochemistry (Moscow) Supplement. Series A, Membrane and …, 2020).
Like-named read-outs stand apart in the source and are kept apart here.

How the values were obtained:
macrophages IC-21 [1] = assay: Binding of 2-μm non-opsonized latex particles by macrophages; type: cell-based, mouse
macrophages IC-21 [2] = conditions: peptide at 50 μM, IC-21 cells, 1 h
macrophages IC-21 [3] = type: cell-based, mouse
hepatitis C virus = conditions: in vitro; cited from earlier work
[4] = concentrations of the order of tens of μM; cited from earlier work

Ac-STKLSEMLSELGNMDKASKLSRKLSR-NH2 [Mut2]
Change in the phagocytosis index (macrophages IC-21 [1]; concentration range from 0.5 to 50 μM, 6 independent experiments for each peptide): did not cause significant changes | Toxic effect on cells (macrophages IC-21 [2]): not toxic

methyl-β-cyclodextrin [mβCD, reference compound]
Cell activity, % of the control (macrophages IC-21 [3]; 3.7 mM mβCD, without a peptide, representative experiment, p < 0.001): 121 % of the control

SWLRDIWDWICEVLSDFK [C5A]
Suppression of virus production (hepatitis C virus): more than 5 orders of magnitude

Ac-EWGMAVLWERNRKLKKDLKVLKMLRT-NH2 [Mut1]
Number of particles per cell, % of the control (macrophages IC-21 [1]; Mut1 at 2–10 μM, 7 independent experiments): ~ 160 % of the control | Concentration range at which maximal stimulatory effect was observed (macrophages IC-21 [1]; number of particles per cell, IC-21, 1 h at 37°C, peptide range 0.5 to 50 μM): 4 to 5 µM | Phagocytic index relative to control (macrophages IC-21 [1]; peptide at 50 μM, 7 independent experiments): returned to the control level | Number of particles per cell, % of the control (macrophages IC-21 [3]; peptide at 2 μM, cells not treated with mβCD, representative experiment (Fig. 5)): 134 % of the control | Toxic effect on cells (macrophages IC-21 [2]): did not exert a toxic effect

ATVLNYYVWRDNS
Toxicity [4]: not toxic

VLNYYVW
Toxicity [4]: not toxic
